This note sets out measurements from US3976672A, “(Hydrocarbylphenylsulfonyl)alkyltrimethylstannanes” (priority 1975, dated 1976).

The data set in a line: Thermal stability on distillation. The conditions noted are these: at the temperature required to distill the starting sulfone. Type of data set: physicochemical. As for the experimental part:
The pot residue, a black brittle glass when cooled, weighed 16.2 g. The cuts were analyzed by (glpc) gas-liquid phase chromatography using a 6 feet × 1/8 inch column packed with 10% of silicone gum rubber on silanized diatomaceous earth at a column temperature of 260° C. […] There also was a more volatile component which increased in amount in each successive cut. The latter observation accompanied by a gradual loss in vacuum is usually associated with some thermal decomposition. Cuts No. 2 and No. 3 were combined for a second distillation using a vacuum jacketed vigreaux column. One cut was obtained, b.p. 43°-125° C. […] The vigreaux column was replaced by a short-path head and a third distillation was run on the pot residue. The following cuts were taken:
A sample of Cut No. 1 was analyzed by nuclear magnetic resonance spectroscopy (NMR). […] In summary, the product could only be obtained as a mixture with the starting sulfone despite three distillation attempts to separate the mixture.

As for `CC(C)(C)c1ccc(S(=O)(=O)[CH2][Sn]([CH3])([CH3])[CH3])cc1` [4-t-butylphenylsulfonylmethyltrimethylstannane], the thermal instability result is listed as “thermal instability of the product at the temperature required to distill the starting sulfone”.
